ChEMBL document CHEMBL1811863, “New 5-deoxyflavonoids and their inhibitory effects on protein tyrosine phosphatase 1B (PTP1B) activity” (Bioorg Med Chem, 2011)

molecular target: T1, Tyrosine-protein phosphatase non-receptor type 1 (Homo sapiens, UniProt P18031); test: Inhibition of human recombinant PTP1B assessed as p-nitorphenol production after 30 mins
T1 sequence (P18031 whole entry): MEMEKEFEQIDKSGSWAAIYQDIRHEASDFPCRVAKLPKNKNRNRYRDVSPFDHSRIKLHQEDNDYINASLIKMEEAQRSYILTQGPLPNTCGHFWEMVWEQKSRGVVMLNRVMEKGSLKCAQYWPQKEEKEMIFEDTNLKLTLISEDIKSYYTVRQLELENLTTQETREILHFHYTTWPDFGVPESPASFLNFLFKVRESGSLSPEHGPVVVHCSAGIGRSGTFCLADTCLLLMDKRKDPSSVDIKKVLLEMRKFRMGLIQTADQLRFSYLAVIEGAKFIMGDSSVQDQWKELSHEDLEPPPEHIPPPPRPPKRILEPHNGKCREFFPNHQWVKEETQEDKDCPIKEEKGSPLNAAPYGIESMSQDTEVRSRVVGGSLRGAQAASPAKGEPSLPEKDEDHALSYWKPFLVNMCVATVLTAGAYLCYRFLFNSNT

IC50 [µM] | Structure (SMILES)
98.1 | COc1cc([C@@H]2CC(=O)c3ccc(O)cc3O2)ccc1O
16.5 | COc1ccc(C2CC(=O)c3ccc(O)cc3O2)cc1CC=C(C)C (configuration not stated)
29.2 | CC(C)=CCc1cc([C@@H]2CC(=O)c3ccc(O)cc3O2)ccc1O [ABYSSINONE II]
22.6 | CC(C)=CCc1cc([C@@H]2CC(=O)c3c(O)cc(O)cc3O2)cc(CC=C(C)C)c1O [ABYSSINONE V]
72.9 | CC(C)=CCc1cc([C@@H]2CC(=O)c3ccc(O)cc3O2)cc2c1OC(C)(C)C=C2 [ABYSSINONES III]
15.2 | COc1cc(OC)c([C@H]2COc3cc(O)ccc3C2=O)cc1CC=C(C)C [ERYTHRIBYSSIN E]
35.8 | CC(C)=CCc1cc([C@@H]2CC(=O)c3ccc(O)cc3O2)cc2c1OC(C)(C)C(O)C2 (some centres not stated) [ERYTHRIBYSSIN G]
> 100 | CC1(C)Oc2ccc([C@@H]3CC(=O)c4ccc(O)cc4O3)cc2CC1O (some centres not stated) [ERYTHRIBYSSIN I]
14.9 | COc1cc(O)c([C@]2(O)COc3cc(O)ccc3C2=O)cc1CC=C(C)C [ERYTHRIBYSSIN J]
> 100 | O=Cc1cc([C@@H]2CC(=O)c3ccc(O)cc3O2)ccc1O [ERYTHRIBYSSIN K]
> 100 | O=C1C[C@@H](c2ccc(O)cc2)Oc2cc(O)ccc21 [LIQUIRTIGENIN]
17.2 | COc1cc(O)c(C2COc3cc(O)ccc3C2=O)cc1CC=C(C)C (configuration not stated) [PROSTRATOL C]
